Source: article PMC12081876, “Identification of PTGR2 inhibitors as a new therapeutic strategy for diabetes and obesity” (EMBO Molecular Medicine, 2025)

Assays:
murine PPARγ (mPPARγ) = target: T1, murine PPARγ (mPPARγ) (Mus musculus, UniProt P37238); test: LC-MS/MS of covalent binding to mPPARγ overexpressed in HEK293T cells; details: HEK293T cells overexpressing mPPARγ
T1 construct: host or cells: HEK293T
Experimental: HEK293T cells were transfected with murin PPARγ (mPPARγ) and mPPARγ C313A plasmids for immunoprecipitation, which are Myc-DDK-tagged (OriGene, USA). […] According to the manufacturer’s protocol, proteins were immunoprecipitated using Anti-FLAG® M2 Magnetic Beads (2.5 mg/ml; cat. no. F1804, Sigma-Aldrich). Subsequently, the eluted proteins were separated by SDS-PAGE and subjected to immunoblot analysis. Following separation by SDS-PAGE, proteins were stained with Coomassie blue and SYPRO-Ruby stain. The protein bands of interest were cut out for in-gel tryptic digestion followed by C18 Zip-Tip clean-up (Millipore, USA). For proteomic shotgun identifications, nanoLC-nanoESI-MS/MS analysis was performed on a nanoAcquity system (Waters, USA) connected to the LTQ Orbitrap Velos hybrid MS (Thermo Electron, USA) equipped with a PicoView nanospray interface (New Objective, USA). Samples were loaded onto a C18 BEH column (75 μm × 25 cm length, 130 Å, 1.7 μm particle size) (Waters, USA) and separated by a segmented gradient form in 60 min from 5% to 40% acetonitrile (with 0.1% formic acid) at a constant flow rate of 300 nL/min with a column temperature of 35 °C. The mass spectrometer was operated in the data-dependent mode. […] Protein identification and modification were analyzed using Mascot Daemon (Matrix Science Inc., Chicago). […]

mPPARγ LBD C313A mutant = target: T2, mPPARγ LBD C313A mutant (Mus musculus, UniProt P37238, C313A); test: Native mass spectrometry ligand binding, mPPARγ LBD C313A; design: species or system murine
T2 construct: mPPARγ LBD C313A mutant
Experimental: Wide-type mPPARγ ligand binding domain (LBD), mPPARγ LBD C313A mutant, and mPPARγ LBD H351A mutant were mixed together in a 1:1:1 molar ratio and then incubated with 15-keto-PEG2 or pioglitazone in a 1:10 molar ratio for 5 min at room temperature, respectively. The protein mixture was buffer-exchanged into 500 mM ammonium acetate buffer pH 7.5 using 7 K Zeba™ Spin Desalting Column (cat. no, 89877, Thermo) and immediately introduced into a modified Q-Exactive mass spectrometer (Thermo). The sets of optimized parameters were applied to analyze the ligand binding, including the higher-energy collisional dissociation (HCD) energy of 20 V; spray voltage, 1.1 kV; capillary temperature, 200 °C; S-lens RF level, 200; and resolution, 12,500 at m/z 400. Spectra were acquired and processed manually using Thermo Xcalibur Qual Browser (version 4.4.16.14). The relative percentage of compound-bound forms was quantified by the UniDec software and the degree of effector coupling was calculated by normalizing the relative percentage of bound forms to the sum of the percentage of unbound and bound forms.

Ucp1 = test: Relative Ucp1 expression in fat depots (RT-qPCR); format: in vivo, mouse; details: 40 mg/kg/day ip, HFHSD-fed mice, vs vehicle
PPARγ lysine acetylation = test: Cell-based PPARγ acetylation assay; design: species or system mouse; details: cultured adipocytes
Experimental: One day after achieving 100% confluence, 3T3-L1 cells were induced differentiation with 0.5 mM IBMX, 1 µm dexamethasone and 10 μg/mL insulin in DMEM containing 10% FBS for 2 days and maintained differentiation in DMEM supplemented with 10 μg/mL insulin and 10% FBS for 6 days. The medium was changed every 2 days. […] Cells were harvested and lysed in RIPA buffer supplemented with 1X cOmplete™, EDTA-free Protease Inhibitor Cocktail (cat. no. 04693132001, Roche) and 1X PhosSTOP™ (cat. no. 4906845001, Roche). The protein concentrations of cell lysates were measured by Bradford reagent (cat. no. BP500-0006, Bio-Rad). The protein samples were performed immunoprecipitation with magnetic beads (Protein G Mag Sepharose™, Cytiva). Briefly, 200 μg of protein samples were incubated in 500 μl of PBS buffer containing 1 μg of anti-PPARγ antibody or 1 μg of anti-rabbit IgG antibody with gentle rotation at 4 °C overnight. On the next day, PBS-washed beads were incubated with overnight mixture of protein sample and antibody at 4 °C for 1 h with gentle rotation. Then the beads were washed three times with 1000 μl of PBS and harvested with centrifugation at 4 °C and 10,000 × g for 5 min. […] Acetylation level of PPARγ was analyzed using Image J software and normalized against PPARγ.

T1 sequence (P37238 whole entry): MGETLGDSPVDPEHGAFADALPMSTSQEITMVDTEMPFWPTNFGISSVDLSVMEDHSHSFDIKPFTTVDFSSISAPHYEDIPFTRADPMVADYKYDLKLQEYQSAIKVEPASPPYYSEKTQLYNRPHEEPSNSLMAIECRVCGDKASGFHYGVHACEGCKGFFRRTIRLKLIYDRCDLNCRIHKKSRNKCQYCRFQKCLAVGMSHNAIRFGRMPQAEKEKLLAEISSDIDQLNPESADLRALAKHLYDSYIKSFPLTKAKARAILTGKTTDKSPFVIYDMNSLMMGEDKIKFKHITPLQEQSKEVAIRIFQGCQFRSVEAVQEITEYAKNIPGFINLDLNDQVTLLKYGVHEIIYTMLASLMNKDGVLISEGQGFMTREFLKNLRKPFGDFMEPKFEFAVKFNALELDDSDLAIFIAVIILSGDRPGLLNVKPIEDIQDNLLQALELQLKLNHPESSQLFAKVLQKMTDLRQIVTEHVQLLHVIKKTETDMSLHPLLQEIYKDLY
T2 sequence (P37238 238-503 C313A limits assumed): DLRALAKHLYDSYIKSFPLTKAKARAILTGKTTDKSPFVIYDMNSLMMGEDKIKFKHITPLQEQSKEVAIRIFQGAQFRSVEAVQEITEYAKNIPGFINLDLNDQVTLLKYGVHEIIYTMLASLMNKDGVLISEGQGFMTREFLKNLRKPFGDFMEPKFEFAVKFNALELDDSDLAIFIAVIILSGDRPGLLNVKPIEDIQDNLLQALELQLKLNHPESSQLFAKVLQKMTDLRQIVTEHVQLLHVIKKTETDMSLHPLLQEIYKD

In the case of `CCCCCC(=O)/C=C/[C@H]1[C@H](O)CC(=O)[C@@H]1C/C=C\CCCC(=O)O` [15-keto-PGE2, 15-keto-prostaglandin E2], the “covalent binding site on mPPARγ (LC-MS/MS)” value (murine PPARγ (mPPARγ)) is reported as “covalently binds mPPARγ at the Cys313 residue”, the “effect of C313A mutation on binding (native MS)” value (mPPARγ LBD C313A mutant) is reported as “almost completely abolished 15-keto-PGE2 binding” and the “expression of Ucp1 in fat depots” value (Ucp1) is reported as “increased expression of Ucp1 in inguinal, perigonadal, and brown adipose tissues”. The “acetylation of the PPARγ LBD” value (PPARγ lysine acetylation) was “no altered acetylation of the PPARγ LBD”.
